In assay [1] the target is 5-hydroxytryptamine receptor 1A (Homo sapiens, UniProt P08908). The format is functional.
A further assay addresses T1, NADPH oxidase 1 (Homo sapiens, UniProt Q9Y5S8).
T1 sequence (Q9Y5S8 whole entry): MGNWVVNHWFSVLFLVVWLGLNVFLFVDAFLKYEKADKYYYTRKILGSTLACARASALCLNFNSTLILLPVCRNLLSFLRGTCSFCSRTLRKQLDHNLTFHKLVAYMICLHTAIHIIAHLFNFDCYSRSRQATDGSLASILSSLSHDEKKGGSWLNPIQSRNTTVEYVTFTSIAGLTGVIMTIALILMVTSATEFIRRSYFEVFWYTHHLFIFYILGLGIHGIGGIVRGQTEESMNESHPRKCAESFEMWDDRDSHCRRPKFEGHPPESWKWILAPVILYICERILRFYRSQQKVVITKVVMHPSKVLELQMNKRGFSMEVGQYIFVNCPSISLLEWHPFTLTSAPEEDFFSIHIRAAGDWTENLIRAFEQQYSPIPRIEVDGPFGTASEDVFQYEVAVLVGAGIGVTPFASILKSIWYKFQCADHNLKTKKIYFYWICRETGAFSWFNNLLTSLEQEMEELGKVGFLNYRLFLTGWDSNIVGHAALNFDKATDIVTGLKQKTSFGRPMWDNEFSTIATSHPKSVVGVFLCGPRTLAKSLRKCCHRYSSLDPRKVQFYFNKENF
Kind of assay: Late-stage luminescence-based cell-based dose response assay to identify inhibitors of NADPH oxidase 1 (NOX1): Purchased analogs 2. The format is functional.

Assay [2] has as its target T2, Tyrosine-protein phosphatase non-receptor type 7 (Homo sapiens, UniProt P35236).
T2 sequence (P35236 whole entry): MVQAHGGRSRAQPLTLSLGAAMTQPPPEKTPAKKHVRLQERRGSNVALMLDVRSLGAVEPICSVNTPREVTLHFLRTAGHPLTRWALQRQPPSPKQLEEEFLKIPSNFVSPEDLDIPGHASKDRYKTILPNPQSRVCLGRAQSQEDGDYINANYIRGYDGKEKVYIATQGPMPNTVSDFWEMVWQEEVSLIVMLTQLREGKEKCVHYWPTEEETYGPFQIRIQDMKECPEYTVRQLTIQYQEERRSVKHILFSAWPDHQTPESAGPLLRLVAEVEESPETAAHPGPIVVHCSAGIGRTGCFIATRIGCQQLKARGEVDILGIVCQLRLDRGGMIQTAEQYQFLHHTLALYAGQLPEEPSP
As to the kind of experiment: inhibitors of human HePTP phosphatase, […], biochemical, absorbance, leukemia target (AID 521). The format is functional.

For a further assay, the system named is H4. Kind of assay: Luminescence Cell-Based Dose Response HTS to Identify Activators of 5'UTR Stem-Loop Driven Prion Protein mRNA Translation in H4 Neuroglioblastoma Cells. [Related pubchem assays: 1829 (Project Summary), 1814 (Primary HTS)]. The format is functional. The conditions noted are these: Homo sapiens.
A short description of assay [3]: Luminescence Cell-Based Dose Response HTS to Identify Activators of Luciferase Translation or Activity in H4 […] Cells. [Related pubchem assays: 1829 (Project Summary), 1814 (Primary HTS)]. The format is functional.
The nature of assay [4]: Luminescence Cell-Based Dose Confirmation HTS to Identify Activators of 5'UTR Stem-Loop Driven Alpha-Synuclein mRNA Translation in H4 Neuroglioblastoma Cells. [Related pubchem assays: 1829 (Project Summary), 1814 (Primary HTS)]. The format is functional.
Assay [5] concerns the target Voltage-gated inwardly rectifying potassium channel KCNH2 (Homo sapiens, UniProt Q12809). Kind of assay: hERG protection from proarrhythmic block, potency, dose response, cell-based, thallium flux (AID 2121). The format is ADME.
Assay [6] concerns the target T3, RNA-binding protein pos-1 (Caenorhabditis elegans, UniProt G5EF15).
T3 sequence (G5EF15 whole entry): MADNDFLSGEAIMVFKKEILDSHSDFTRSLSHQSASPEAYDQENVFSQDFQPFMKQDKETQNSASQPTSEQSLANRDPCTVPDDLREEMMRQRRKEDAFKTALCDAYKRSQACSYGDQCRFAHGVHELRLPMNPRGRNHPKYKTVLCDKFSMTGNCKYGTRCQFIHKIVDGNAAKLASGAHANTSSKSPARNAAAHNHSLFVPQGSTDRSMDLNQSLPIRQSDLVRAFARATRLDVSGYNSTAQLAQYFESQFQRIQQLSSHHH
Kind of assay: inhibitors of POS-1/mex-3 RNA binding, dose response, biochemical, fluorescence polarization (AID 1964).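 Note: purified POS-1 fused to maltose binding protein made in E. coli; potency of compounds blocking POS-1 binding to fluorescent RNA.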 Background: In fluorescence polarisation assays a small probe gives low polarisation when free and higher when bound to something large.

Assay [7] in a line: Escherichia coli growth inhibition, dose response, counter-screen for MEX-5/POS-1 RNA-binding inhibitor project, luminescence, NEB5alpha (AID 1959). The format is functional. A general note: Counterscreens check selectivity or assay interference.
The target in assay [8] is T4, Zinc finger protein mex-5 (Caenorhabditis elegans, UniProt Q9XUB2).
T4 sequence (Q9XUB2 whole entry): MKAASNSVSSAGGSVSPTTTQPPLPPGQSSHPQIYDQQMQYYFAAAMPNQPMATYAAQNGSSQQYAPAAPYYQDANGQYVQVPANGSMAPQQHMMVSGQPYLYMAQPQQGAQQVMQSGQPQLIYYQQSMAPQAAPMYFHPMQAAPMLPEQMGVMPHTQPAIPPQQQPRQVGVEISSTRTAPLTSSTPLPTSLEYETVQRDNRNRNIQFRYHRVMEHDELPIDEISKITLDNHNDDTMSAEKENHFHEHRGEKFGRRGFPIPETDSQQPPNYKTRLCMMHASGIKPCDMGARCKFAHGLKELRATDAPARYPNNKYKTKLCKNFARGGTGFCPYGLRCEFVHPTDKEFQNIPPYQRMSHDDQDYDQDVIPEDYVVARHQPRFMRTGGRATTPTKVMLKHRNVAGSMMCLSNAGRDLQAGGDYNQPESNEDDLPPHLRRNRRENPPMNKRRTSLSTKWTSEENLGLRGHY
As to the kind of experiment: MEX-5/TCR-2 RNA interaction inhibitors, dose response, biochemical, C. elegans, fluorescence polarization (AID 1960).

In assay [9] the target is T5, Corticotropin-releasing factor receptor 2/Corticotropin-releasing factor-binding protein (Homo sapiens, UniProt P24387+Q13324).
T5 sequence (Q13324 whole entry): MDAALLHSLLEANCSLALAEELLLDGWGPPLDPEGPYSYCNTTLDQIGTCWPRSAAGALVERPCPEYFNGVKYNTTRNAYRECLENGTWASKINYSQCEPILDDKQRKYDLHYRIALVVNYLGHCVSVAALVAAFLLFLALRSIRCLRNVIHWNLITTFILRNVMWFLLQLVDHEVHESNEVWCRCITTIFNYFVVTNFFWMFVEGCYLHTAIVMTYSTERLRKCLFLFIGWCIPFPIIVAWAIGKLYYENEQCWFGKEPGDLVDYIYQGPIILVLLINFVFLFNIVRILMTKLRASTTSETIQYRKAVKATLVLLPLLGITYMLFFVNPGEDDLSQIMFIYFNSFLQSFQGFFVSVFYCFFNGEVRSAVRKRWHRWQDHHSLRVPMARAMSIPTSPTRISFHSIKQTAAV
T5 sequence (P24387 whole entry): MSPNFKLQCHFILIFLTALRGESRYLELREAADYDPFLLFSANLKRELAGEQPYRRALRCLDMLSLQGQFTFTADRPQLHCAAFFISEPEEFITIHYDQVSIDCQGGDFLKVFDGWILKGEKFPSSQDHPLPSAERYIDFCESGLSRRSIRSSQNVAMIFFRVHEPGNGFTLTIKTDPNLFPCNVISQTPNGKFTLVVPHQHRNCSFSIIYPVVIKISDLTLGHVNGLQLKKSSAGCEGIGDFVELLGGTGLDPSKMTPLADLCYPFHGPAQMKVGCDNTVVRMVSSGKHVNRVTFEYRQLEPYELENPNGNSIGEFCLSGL
Kind of assay: activators of CRF receptor 2 with binding protein – uHTS hits, confirmation (AID 602473). The format is functional. To be noted: read-out: EC50_Mean.

Assay [10] has as its target T6, Carboxy-terminal domain RNA polymerase II polypeptide A small phosphatase 1 (Homo sapiens, UniProt Q9GZU7).
T6 sequence (Q9GZU7 whole entry): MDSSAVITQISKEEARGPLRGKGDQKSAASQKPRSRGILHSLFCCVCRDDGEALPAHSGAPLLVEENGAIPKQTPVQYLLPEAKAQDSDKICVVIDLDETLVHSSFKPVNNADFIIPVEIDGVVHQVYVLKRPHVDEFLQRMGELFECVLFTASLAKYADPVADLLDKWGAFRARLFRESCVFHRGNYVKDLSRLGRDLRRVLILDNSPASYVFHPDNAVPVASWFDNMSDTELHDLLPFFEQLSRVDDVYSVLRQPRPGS
Kind of assay: inhibitors of CTDSP1, concentration-response testing, biochemical assay, absorbance-based, actives from ultra-high-throughput screening (AID 540297). The format is functional.

Assay [11] deals with T7, Estrogen receptor beta (Homo sapiens, UniProt Q92731).
Assay [12] deals with T7, Estrogen receptor beta. Kind of assay: ERβ–SRC-3 coactivator interaction inhibitors, confirmation, orthogonal assay, biochemical, ELISA, streptavidin-HRP readout (AID 1060).
Assay [13] addresses T8, Bcl-2-related protein A1 (Mus musculus, UniProt Q07440).
T8 sequence (Q07440 whole entry): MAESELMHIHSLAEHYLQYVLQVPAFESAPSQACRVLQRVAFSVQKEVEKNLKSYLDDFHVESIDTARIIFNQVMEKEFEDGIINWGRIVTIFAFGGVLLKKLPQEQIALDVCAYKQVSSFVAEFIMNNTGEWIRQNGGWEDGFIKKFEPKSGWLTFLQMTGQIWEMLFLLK
Kind of assay: Bfl-1 inhibitors, primary screen, biochemical, fluorescence polarization, FITC-Bid, mouse (AID 432).

Assay [14] concerns the target T8, Bcl-2-related protein A1. As to the kind of experiment: Bfl-1 inhibitors blocking BH3 peptide binding, confirmation, biochemical, TR-FRET, mouse Bfl-1 (AID 621).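 Note: TR-FRET binding of GST-Bfl-1 to FITC-labelled Bid peptide via terbium antibody.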 For orientation: Time-resolved FRET reads energy transfer from a long-lived donor to a nearby acceptor.

Molecules are shown by their SMILES. Calls of active or inactive are those of the source.

T7 sequence (Q92731 whole entry): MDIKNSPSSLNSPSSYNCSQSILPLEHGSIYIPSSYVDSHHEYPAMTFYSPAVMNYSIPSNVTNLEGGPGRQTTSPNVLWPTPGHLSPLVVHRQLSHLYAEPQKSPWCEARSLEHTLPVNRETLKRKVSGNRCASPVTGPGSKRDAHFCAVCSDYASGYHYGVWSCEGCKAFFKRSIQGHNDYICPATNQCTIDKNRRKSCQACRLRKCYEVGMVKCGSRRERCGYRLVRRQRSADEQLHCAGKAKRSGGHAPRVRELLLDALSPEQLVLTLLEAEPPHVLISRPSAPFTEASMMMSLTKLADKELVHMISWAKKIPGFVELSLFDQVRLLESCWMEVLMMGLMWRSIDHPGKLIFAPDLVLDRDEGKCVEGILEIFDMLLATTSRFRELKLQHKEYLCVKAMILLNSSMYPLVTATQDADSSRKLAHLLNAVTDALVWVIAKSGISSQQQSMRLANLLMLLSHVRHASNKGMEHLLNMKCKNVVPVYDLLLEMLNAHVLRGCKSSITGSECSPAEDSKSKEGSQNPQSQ
Chain of 5-hydroxytryptamine receptor 1A (P08908 whole entry): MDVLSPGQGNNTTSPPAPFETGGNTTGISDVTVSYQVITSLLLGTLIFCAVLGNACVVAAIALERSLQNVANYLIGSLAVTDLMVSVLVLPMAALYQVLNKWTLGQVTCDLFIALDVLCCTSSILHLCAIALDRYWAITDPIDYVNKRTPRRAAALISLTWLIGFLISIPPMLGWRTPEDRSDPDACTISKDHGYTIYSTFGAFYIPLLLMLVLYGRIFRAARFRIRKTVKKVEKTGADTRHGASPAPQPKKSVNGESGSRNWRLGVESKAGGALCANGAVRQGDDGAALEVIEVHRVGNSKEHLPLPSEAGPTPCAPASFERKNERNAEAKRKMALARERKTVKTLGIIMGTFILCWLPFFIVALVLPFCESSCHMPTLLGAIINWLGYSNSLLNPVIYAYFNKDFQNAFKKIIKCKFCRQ
Chain of Voltage-gated inwardly rectifying potassium channel KCNH2 (Q12809 whole entry): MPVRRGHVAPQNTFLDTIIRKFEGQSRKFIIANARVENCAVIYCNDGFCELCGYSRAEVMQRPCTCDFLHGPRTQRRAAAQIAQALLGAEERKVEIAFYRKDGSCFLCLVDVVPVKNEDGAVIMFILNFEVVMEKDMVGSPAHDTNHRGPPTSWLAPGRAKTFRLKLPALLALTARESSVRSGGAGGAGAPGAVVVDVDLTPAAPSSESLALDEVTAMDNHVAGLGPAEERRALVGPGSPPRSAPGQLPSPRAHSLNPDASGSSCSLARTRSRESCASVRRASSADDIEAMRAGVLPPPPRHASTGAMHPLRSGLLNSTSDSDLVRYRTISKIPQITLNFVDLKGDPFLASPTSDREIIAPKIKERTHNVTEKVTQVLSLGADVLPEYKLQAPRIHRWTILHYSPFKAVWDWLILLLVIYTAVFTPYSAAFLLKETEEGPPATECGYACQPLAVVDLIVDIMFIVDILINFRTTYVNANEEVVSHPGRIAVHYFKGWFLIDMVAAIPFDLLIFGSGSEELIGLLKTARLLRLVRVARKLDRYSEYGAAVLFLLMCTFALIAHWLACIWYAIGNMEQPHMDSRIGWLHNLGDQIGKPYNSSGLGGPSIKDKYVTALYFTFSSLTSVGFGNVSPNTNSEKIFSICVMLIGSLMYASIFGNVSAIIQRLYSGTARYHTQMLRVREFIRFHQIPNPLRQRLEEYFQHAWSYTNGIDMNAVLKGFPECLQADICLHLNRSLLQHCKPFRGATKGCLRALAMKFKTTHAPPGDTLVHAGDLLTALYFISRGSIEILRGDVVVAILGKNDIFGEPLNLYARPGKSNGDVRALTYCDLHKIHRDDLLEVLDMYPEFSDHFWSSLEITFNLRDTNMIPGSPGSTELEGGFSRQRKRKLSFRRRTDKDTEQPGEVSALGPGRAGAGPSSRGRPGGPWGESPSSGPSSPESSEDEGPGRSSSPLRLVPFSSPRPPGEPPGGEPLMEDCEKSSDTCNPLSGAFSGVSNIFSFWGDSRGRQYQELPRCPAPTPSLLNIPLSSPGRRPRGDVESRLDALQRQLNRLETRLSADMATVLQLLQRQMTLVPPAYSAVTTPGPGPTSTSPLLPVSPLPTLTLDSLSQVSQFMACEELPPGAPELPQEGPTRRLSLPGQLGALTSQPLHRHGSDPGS

Consider `c1ccc(N2CCN(Cc3cn4cccnc4n3)CC2)cc1`, for which the EC50 in [1] is > 50 µM (not active).
Broadly, the IC50 is the concentration needed to halve the response being measured. For the compound `O=C(Nc1ccc(Oc2ccc(Cl)cc2)cc1)Nc1ccc([N+](=O)[O-])cc1`, the IC50 at NADPH oxidase 1 is on record as > 17 µM (not active).
Take `O=C(Nc1nncs1)c1c(F)c(F)c(F)c(F)c1F`: the IC50 in assay [2] is recorded as > 100 µM (not active).
As for `CCOC(=O)c1sc(NC(=S)NC(=O)c2ccccc2)nc1C`, the EC50 with H4 was 25 µM (active); in [3], 7.98 µM (active); in assay [4] it was 17.6 µM (active); in assay [5], 3.68 µM (active).
With `O=c1c2ccccc2nc(N/N=C/c2ccc(O)cc2)n1O`, the EC50 was > 300 µM (not active) in assay [6], 14.3 µM (active) in [7] and > 300 µM (inconclusive) in assay [8].
Turning to `CCCc1nc2sc3ccccc3c(=O)c2c(=O)n1Cc1ccco1`, in assay [9], the EC50 is 13.8 µM (active). The IC50 in [10] was 9.92 µM (active); on Estrogen receptor beta [11], 11.6 µM (active); at Estrogen receptor beta [12], 0.709 µM (not active).
Take `CN(C)c1ccc(-c2nn3c(-c4ccc(Cl)cc4Cl)nnc3s2)cc1`: the half-maximal inhibitory concentration (IC50) at Bcl-2-related protein A1 [13] and on Bcl-2-related protein A1 [14] was > 100 µM (not active) throughout.

Source of the values: ChEMBL document CHEMBL1201862, “PubChem BioAssay data set” (2004).
